Experiments:
[1] = test system: Z138 cells; experiment: MTT cell proliferation assay, Z138 cells; type: cell-based, human; conditions: Homo sapiens, Z-138, incubation approximately 64-72 hours
Procedure: (§1) The MTT cell proliferation assay was used to study the cytotoxic properties of the compounds. The assay was performed according to the method described by Roche Molecular Biochemicals, with minor modifications. The assay is based on the cleavage of the tetrazolium salt, MTT, in the presence of an electron-coupling reagent. The water-insoluble formazan salt produced must be solubilized in an additional step. Cells grown in a 96-well tissue culture plate were incubated with the MTT solution for approximately 4 hours. After this incubation period, a water-insoluble formazan dye formed. After solubilization, the formazan dye was quantitated using a scanning multi-well spectrophotometer (ELISA reader). […] The cells were seeded at 5,000-10,000 cells in each well of 96-well plate in 100 μL of fresh culture medium and were allowed to attach overnight. The stock solutions of the compounds were diluted in 100 μL cell culture medium to obtain eight concentrations of each test compound, ranging from 1 nM to 30 μM. […] All optical densities were measured at 490 nm using a Vmax Kinetic Microplate Reader (Molecular Devices). In most cases, the assay was performed in duplicate and the results were presented as a mean percent inhibition to the negative control+SE. The following formula was used to calculate the percent of inhibition: Inhibition (%)=(1−(ODo/OD))×100.
(§2) The compounds were tested against MS751, Z138 and 3T3 cells. The MS751 cell line is derived from a metastasis to lymph node of human cervix from a patient diagnosed with squameous cell carcinoma of the cervix. The Z138 cell line is a mature B-cell acute lymphoblastic leukemia cell line derived from a patient with chronic lumphocytic leukemia. 3T3 cells are standard fibroblast cells; they were originally isolated from Swiss mouse embryo tissue.

[2] = test system: 3T3 cells; experiment: MTT cell proliferation assay, 3T3 cells; type: cell-based, mouse; conditions: Mus musculus, NIH3T3; 3T3 fibroblast cells; incubation approximately 64-72 hours
Procedure: as §1, §2

[3] = test system: MS751 cells; experiment: MTT cell proliferation assay, MS751 cells; type: cell-based, human; conditions: Homo sapiens, incubation approximately 64-72 hours, read-out: MTT Assay IC50 MS 751
Procedure: as §1, §2

## Nc1ccc([C@H]2C[C@@H]2C(=O)NCc2cc3cc(-c4ccc(C(=O)N5CCNCC5)cc4)cc(-c4ccc(F)cc4)c3o2)cn1 (stereo in doubt) [Compound K027, (1S,2S)-2-(6-aminopyridin-3-yl)-N—((7-(4-fluorophenyl)-5-(4-(piperazine-1-carbonyl)phenyl)benzofuran-2-yl)methyl)cyclopropanecarboxamide]
[1]
  IC50: < 1000 nM
[2]
  IC50: > 10000 nM

## Nc1ccc(C2CC2C(=O)NCCCOc2cc(-c3ccc(C(=O)N4CCC(F)(F)CC4)cc3)cc(C(F)(F)F)c2)cn1 (centres unmarked) [Compound K002, 2-(6-aminopyridin-3-yl)-N—(3-(4′-(4,4-difluoropiperidine-1-carbonyl)-5-(trifluoromethyl)biphenyl-3-yloxy)propyl)cyclopropanecarboxamide]
[1]
  IC50: < 1000 nM
[3]
  IC50: < 1000 nM
[2]
  IC50: 1000 to 5000 nM

## Nc1ccc(C2CC2C(=O)NCCOc2ccc(-c3ccc(C(=O)N4CCC(F)(F)CC4)cc3)cc2-c2ccc(F)cc2F)cn1 (centres unmarked) [Compound K003, 2-(6-aminopyridin-3-yl)-N—(2-(3-(2,4-difluorophenyl)-4′-(4,4-difluoropiperidine-1-carbonyl)biphenyl-4-yloxy)ethyl)cyclopropanecarboxamide]
[1]
  IC50: < 1000 nM
[3]
  IC50: < 1000 nM
[2]
  IC50: 5000 to 10000 nM

## Nc1ccc(C2CC2C(=O)NCc2cc3cc(-c4ccc(C(=O)N5CCC(F)(F)CC5)cc4F)cc(-c4ccc(F)cc4)c3o2)cn1 (centres unmarked) [Compound K004, 2-(6-aminopyridin-3-yl)-N—((5-(4-(4,4-difluoropiperidine-1-carbonyl)-2-fluorophenyl)-7-(4-fluorophenyl)benzofuran-2-yl)methyl)cyclopropanecarboxamide]
[1]
  IC50: < 1000 nM
[3]
  IC50: < 1000 nM
[2]
  IC50: > 10000 nM

## Nc1ccc([C@H]2C[C@@H]2C(=O)NCCCOc2cc(-c3ccc(C(=O)N4CCC(F)(F)CC4)cc3)cc(C(F)(F)F)c2)cn1 [Compound K005, (1S,2S)-2-(6-aminopyridin-3-yl)-N—(3-(4′-(4,4-difluoropiperidine-1-carbonyl)-5-(trifluoromethyl)biphenyl-3-yloxy)propyl)cyclopropanecarboxamide]
[1]
  IC50: < 1000 nM
[3]
  IC50: < 1000 nM
[2]
  IC50: < 1000 nM

## Nc1ccc([C@@H]2C[C@H]2C(=O)NCCCOc2cc(-c3ccc(C(=O)N4CCC(F)(F)CC4)cc3)cc(C(F)(F)F)c2)cn1 [Compound K006, (1R,2R)-2-(6-aminopyridin-3-yl)-N—(3-(4′-(4,4-difluoropiperidine-1-carbonyl)-5-(trifluoromethyl)biphenyl-3-yloxy)propyl)cyclopropanecarboxamide]
[1]
  IC50: < 1000 nM
[3]
  IC50: < 1000 nM
[2]
  IC50: 1000 to 5000 nM

## Nc1ccc([C@H]2C[C@@H]2C(=O)NCc2cc3cc(-c4ccc(C(=O)N5CCC(F)(F)CC5)cc4)cc(C(F)(F)F)c3o2)cn1 [Compound K007, (1S,2S)-2-(6-aminopyridin-3-yl)-N—((5-(4-(4,4-difluoropiperidine-1-carbonyl)phenyl)-7-(trifluoromethyl)benzofuran-2-yl)methyl)cyclopropanecarboxamide]
[1]
  IC50: 1000 to 5000 nM
[3]
  IC50: 1000 to 5000 nM
[2]
  IC50: > 10000 nM

## Nc1ccc([C@@H]2C[C@H]2C(=O)NCc2cc3cc(-c4ccc(C(=O)N5CCC(F)(F)CC5)cc4)cc(C(F)(F)F)c3o2)cn1 [Compound K008, (1R,2R)-2-(6-Aminopyridin-3-yl)-N—((5-(4-(4,4-difluoropiperidine-1-carbonyl)phenyl)-7-(trifluoromethyl)benzofuran-2-yl)methyl)cyclopropanecarboxamide]
[1]
  IC50: 1000 to 5000 nM
[3]
  IC50: > 10000 nM
[2]
  IC50: > 10000 nM

## Nc1ccc(C2CC2C(=O)NCc2ccc(-c3ccc(-c4ccc(C(=O)N5CCC(F)(F)CC5)cn4)cc3C(F)(F)F)o2)cn1 (centres unmarked) [Compound K009, 2-(6-aminopyridin-3-yl)-N—((5-(4-(5-(4,4-difluoropiperidine-1-carbonyl)pyridin-2-yl)-2-(trifluoromethyl)phenyl)furan-2-yl)methyl)cyclopropanecarboxamide]
[1]
  IC50: < 1000 nM
[3]
  IC50: < 1000 nM
[2]
  IC50: 5000 to 10000 nM

## Nc1ccc([C@H]2C[C@@H]2C(=O)NCc2cc3cc(-c4ccc(C(=O)N5CCC(F)(F)CC5)cc4)cc(-c4ccc(F)cc4F)c3o2)cn1 [Compound K010, (1S,2S)-2-(6-aminopyridin-3-yl)-N—((7-(2,4-difluorophenyl)-5-(4-(4,4-difluoropiperidine-1-carbonyl)phenyl)benzofuran-2-yl)methyl)cyclopropanecarboxamide]
[1]
  IC50: < 1000 nM
[3]
  IC50: < 1000 nM
[2]
  IC50: 1000 to 5000 nM

## Nc1ccc([C@H]2C[C@@H]2C(=O)NCc2cc3cc(-c4ccc(C(=O)N5CCC(F)(F)CC5)cc4)cc(-c4ccc(F)cc4)c3o2)cn1 [Compound K011, (1S,2S)-2-(6-aminopyridin-3-yl)-N—((5-(4-(4,4-difluoropiperidine-1-carbonyl)phenyl)-7-(4-fluorophenyl)benzofuran-2-yl)methyl)cyclopropanecarboxamide]
[1]
  IC50: < 1000 nM
[3]
  IC50: < 1000 nM
[2]
  IC50: > 10000 nM

## Nc1ccc([C@H]2C[C@@H]2C(=O)NCc2cc3cc(-c4ccc(C(=O)N5CCC(F)(F)CC5)cn4)cc(-c4ccc(F)cc4)c3o2)cn1 [Compound K012, (1S,2S)-2-(6-aminopyridin-3-yl)-N—((5-(5-(4,4-difluoropiperidine-1-carbonyl)pyridin-2-yl)-7-(4-fluorophenyl)benzofuran-2-yl)methyl)cyclopropanecarboxamide]
[1]
  IC50: < 1000 nM
[3]
  IC50: < 1000 nM
[2]
  IC50: 1000 to 5000 nM

## Nc1ccc([C@H]2C[C@@H]2C(=O)NCc2cc3cc(-c4ccc(C(=S)N5CCC(F)(F)CC5)cc4)cc(-c4ccc(F)cc4)c3o2)cn1 [Compound K013, (1S,2S)-2-(6-aminopyridin-3-yl)-N—((5-(4-(4,4-difluoropiperidine-1-carbonothioyl)phenyl)-7-(4-fluorophenyl)benzofuran-2-yl)methyl)cyclopropanecarboxamide]
[1]
  IC50: < 1000 nM
[3]
  IC50: < 1000 nM
[2]
  IC50: 1000 to 5000 nM

## Nc1ccc([C@H]2C[C@@H]2C(=O)NCc2cc3cc(-c4ccc(C(=O)N5CCC(F)(F)CC5)cc4)cc(-c4cccc(F)c4)c3o2)cn1 [Compound K014, (1S,2S)-2-(6-aminopyridin-3-yl)-N—((5-(4-(4,4-difluoropiperidine-1-carbonyl)phenyl)-7-(3-fluorophenyl)benzofuran-2-yl)methyl)cyclopropanecarboxamide]
[1]
  IC50: < 1000 nM
[3]
  IC50: < 1000 nM
[2]
  IC50: 1000 to 5000 nM

## Nc1ccc([C@H]2C[C@@H]2C(=O)NCc2cc3cc(-c4ccc(C(=O)N5CCC(F)(F)CC5)cc4)cc(-c4ccc(F)cc4)c3s2)cn1 [Compound K015, (1S,2S)-2-(6-aminopyridin-3-yl)-N—((5-(4-(4,4-difluoropiperidine-1-carbonyl)phenyl)-7-(4-fluorophenyl)benzo[b]thiophen-2-yl)methyl)cyclopropanecarboxamide]
[1]
  IC50: 1000 to 5000 nM
[3]
  IC50: 1000 to 5000 nM
[2]
  IC50: > 10000 nM

## Nc1ccc([C@H]2C[C@@H]2C(=O)NCc2cc3cc(-c4ccc(C(=O)N5CC(Cl)C5)cc4)cc(-c4ccc(F)cc4)c3o2)cn1 [Compound K016, (1S,2S)-2-(6-aminopyridin-3-yl)-N—((5-(4-(3-chloroazetidine-1-carbonyl)phenyl)-7-(4-fluorophenyl)benzofuran-2-yl)methyl)cyclopropanecarboxamide]
[1]
  IC50: < 1000 nM
[3]
  IC50: < 1000 nM
[2]
  IC50: 1000 to 5000 nM

## Nc1ccc([C@H]2C[C@@H]2C(=O)NCc2cc3cc(-c4ccc(C(=O)N5CCC(F)(F)C5)cc4)cc(-c4ccc(F)cc4)c3o2)cn1 [Compound K017, (1S,2S)-2-(6-aminopyridin-3-yl)-N—((5-(4-(3,3-difluoropyrrolidine-1-carbonyl)phenyl)-7-(4-fluorophenyl)benzofuran-2-yl)methyl)cyclopropanecarboxamide]
[1]
  IC50: < 1000 nM
[3]
  IC50: < 1000 nM
[2]
  IC50: 1000 to 5000 nM

## Nc1ccc([C@H]2C[C@@H]2C(=O)NCc2cc3cc(-c4ccc(C(=O)N5CC(F)(F)C5)cc4)cc(-c4ccc(F)cc4)c3o2)cn1 [Compound K018, (1S,2S)-2-(6-aminopyridin-3-yl)-N—((5-(4-(3,3-difluoroazetidine-1-carbonyl)phenyl)-7-(4-fluorophenyl)benzofuran-2-yl)methyl)cyclopropanecarboxamide]
[1]
  IC50: < 1000 nM
[3]
  IC50: < 1000 nM
[2]
  IC50: 1000 to 5000 nM

## Nc1ccc([C@H]2C[C@@H]2C(=O)NCCc2cc3cc(-c4ccc(C(=O)N5CCC(F)(F)CC5)cc4)cc(-c4ccc(F)cc4)c3o2)cn1 [Compound K019, (1S,2S)-2-(6-aminopyridin-3-yl)-N—(2-(5-(4-(4,4-difluoropiperidine-1-carbonyl)phenyl)-7-(4-fluorophenyl)benzofuran-2-yl)ethyl)cyclopropanecarboxamide]
[1]
  IC50: < 1000 nM
[3]
  IC50: < 1000 nM
[2]
  IC50: 1000 to 5000 nM

— patent US20180244660A1, “CYCLOPROPYLDERIVATIVES AND THEIR USE AS KINASE INHIBITORS” (Karyopharm Therapeutics Inc., priority 2015, published 2018)
